Consider 3 compounds from patent US5866681A, “Thrombin receptor antagonists” (priority 1995, dated 1999).

In experiment [1] the target is T1, platelet thrombin receptors (Homo sapiens, UniProt P25116).
T1 construct: host or cells: platelets
T1 sequence (P25116 22-425): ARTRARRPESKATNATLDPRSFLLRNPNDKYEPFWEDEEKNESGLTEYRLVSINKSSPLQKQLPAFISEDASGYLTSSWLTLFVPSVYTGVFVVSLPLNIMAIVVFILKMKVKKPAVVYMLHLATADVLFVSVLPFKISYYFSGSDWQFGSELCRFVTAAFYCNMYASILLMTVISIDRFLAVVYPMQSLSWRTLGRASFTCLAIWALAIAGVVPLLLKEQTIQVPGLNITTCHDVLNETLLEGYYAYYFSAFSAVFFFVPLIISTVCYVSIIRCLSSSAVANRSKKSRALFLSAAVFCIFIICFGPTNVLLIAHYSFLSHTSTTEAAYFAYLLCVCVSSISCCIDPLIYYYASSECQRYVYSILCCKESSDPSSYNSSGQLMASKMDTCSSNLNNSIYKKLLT
Conditions: platelet thrombin receptors activated with either thrombin or agonist peptides; cited from earlier work.

The next experiment addresses T2, thrombin receptor (Homo sapiens, UniProt P25116).
T2 construct: washed human platelets are prepared from blood drawn from healthy volunteers; endogenous in cells; host or cells: washed human platelets from healthy volunteers
T2 sequence (P25116 22-425): T1 sequence (P25116 22-425)
In words: Platelet aggregation assay for thrombin receptor antagonist activity (washed human platelets stimulated with α-thrombin). The experiment is classed as cell-based. As to conditions: washed human platelets, thrombin-mediated aggregation; read-out: IC50 (concentration at which 50% inhibition of platelet aggregation is achieved). On the procedure:
The compounds of the present invention may be tested for thrombin receptor antagonist activity by using a platelet aggregation assay. In this assay, washed human platelets are prepared from blood drawn from healthy volunteers who have not ingested any medications for two weeks prior to donation. Blood is drawn into 12.5% (vol/vol) ACD (85 mM sodium citrate, 111 mM dextrose, 71 mM citric acid) containing 0.1% (vol/vol) PGI2 (0.05 mg/mL PGI2, 100 mM Tris, pH 12). Platelet-rich plasma was obtained by centrifugation at 160×g for 20 minutes. The platelets were pelleted by centrifugation at 760×g for 10 minutes and resuspended in CGS (13 mM trisodium citrate, 120 mM sodium chloride, 30 mM dextrose, pH 7.0) containing 0.1% (vol/vol) PGI2, repelleted and resuspended in Tyrodes buffer (10 mM Hepes, 12 mM sodium bicarbonate, 138 mM sodium chloride, 5.5 mM glucose, 2.9 mM potassium chloride, 1.0 mM calcium chloride, pH 7.4) and stored at 37° C. Approximately 0.4-10 nM α-thrombin is used to stimulate platelet aggregation in control reactions which are monitored by aggregometry using an aggregometer. Candidate antagonists are added to the platelet mixture followed by the addition of thrombin in order to assess their ability to prevent thrombin-mediated aggregation.
Platelet aggregation can also be measured with washed platelets in 96-well microtiter plates as described in Fratantoni, J. C. et al., Am. J. Clin. Pathol. 94:613-617 (1990). The ability of the antagonists to block the thrombin receptor was assessed in this assay using various concentrations of antagonists. The concentration at which 50% inhibition of platelet aggregation is achieved is defined as IC50.

Where a SMILES comes first, the peptide text is derived from it. Where no end group is shown, it is not given here. [ ]: non-standard residue; d: D form. The star is where a group is joined. X14 = O=C([C@H](Cc1ccccc1)N(CC1CCCCC1)CC1CCCCC1)*; Butanoyl(2-OPh) = CCC(Oc1ccccc1)C(=O)*; Cha = N[C@@H](CC1CCCCC1)C(=O)O

Turning to “Phe-Leu-Leu-Arg-Asn-OH (FLLRN-OH) [pentapeptide based on a portion of the agonist peptide minimum structure]”, the “thrombin receptor antagonist activity” value in experiment [1] is “weak antagonist”. In the case of `CCC(Oc1ccccc1)C(=O)N[C@@H](Cc1ccccc1)C(=O)N[C@@H](CC1CCCCC1)C(=O)N[C@@H](CCCNC(=N)N)C(=O)N[C@@H](CCCCN)C(N)=O` (stereo partly drawn) [Compound 46] ({Butanoyl(2-OPh)}-F[Cha]RK-NH2), at thrombin receptor, the IC50 came out at 15 µM. For `N=C(N)NCCC[C@H](NC(=O)[C@H](CC1CCCCC1)NC(=O)[C@H](CC1CCCCC1)NC(=O)[C@H](Cc1ccccc1)N(CC1CCCCC1)CC1CCCCC1)C(=O)N[C@@H](CCCCN)C(=O)N1CCC[C@H]1C(=O)N[C@@H](CC(N)=O)C(=O)N[C@@H](CC(=O)O)C(=O)N[C@@H](CCCCN)C(N)=O` [Compound 8] (X14-[Cha][Cha]RKPNDK-NH2), the IC50 at thrombin receptor was 5 µM.
